In patent US20050026899A1, “Metabolite” (priority 2003, published 2005):

Tests used:
Parameters in all cases: species or system Mice
[1] = target: T1, brain serotonin 5-HT2 receptor (Mus musculus, UniProt P35363); test: binding affinity for brain serotonin 5-HT2 receptor
T1 construct: from tissue; host or cells: brain (rodent)
Source text: (§1) An assessment of dopamine antagonism was made in rodent models. The methods and procedures used can be found in J. Med. Chem., 44 (3), 372-389, 2001 and are incorporated herein by reference. […] It is this combination of serotonin and dopamine receptor antagonism, with higher relative 5-HT2 to D2 receptor affinity that indicates the compound of Formula I as a potent atypical antipsychotic. J. Goldstein, Quetiapine Fumarate (Seroquel): a new atypical antipsychotic, 35(3) Drugs of Today 193-210 (1999). […] Low potency at the D2 receptor is considered advantageous since it a characteristic shared with Clozapine.

dopamine D2 receptor = target: T2, dopamine D2 receptor (Mus musculus, UniProt P61168); test: binding affinity for dopamine D2 receptor
T2 construct: serotonin (5-HT2) receptors relative to dopamine (D2) receptors in the brain; from tissue; host or cells: brain (rodent)
Source text: as §1

dopamine D1 receptor = target: T3, dopamine D1 receptor (Mus musculus, UniProt Q61616); test: binding affinity for dopamine D1 receptor; settings: tested as the dihydrochloride salt; read-out: binding affinity for dopamine D1 receptor (K1)
T3 construct: from tissue
Source text: as §1

T2 sequence (P61168 whole entry): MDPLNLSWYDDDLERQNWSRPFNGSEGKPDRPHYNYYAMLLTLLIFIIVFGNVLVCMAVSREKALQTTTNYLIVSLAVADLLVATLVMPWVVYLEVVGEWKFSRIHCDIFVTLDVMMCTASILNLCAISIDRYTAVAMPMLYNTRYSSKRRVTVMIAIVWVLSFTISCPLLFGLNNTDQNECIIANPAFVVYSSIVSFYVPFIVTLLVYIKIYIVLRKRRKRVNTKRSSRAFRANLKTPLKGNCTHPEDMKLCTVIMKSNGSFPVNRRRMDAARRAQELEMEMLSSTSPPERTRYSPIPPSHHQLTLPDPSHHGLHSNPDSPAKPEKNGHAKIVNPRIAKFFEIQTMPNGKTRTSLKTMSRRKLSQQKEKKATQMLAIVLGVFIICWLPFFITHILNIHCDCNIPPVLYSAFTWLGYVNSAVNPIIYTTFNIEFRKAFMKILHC
T1 sequence (P35363 whole entry): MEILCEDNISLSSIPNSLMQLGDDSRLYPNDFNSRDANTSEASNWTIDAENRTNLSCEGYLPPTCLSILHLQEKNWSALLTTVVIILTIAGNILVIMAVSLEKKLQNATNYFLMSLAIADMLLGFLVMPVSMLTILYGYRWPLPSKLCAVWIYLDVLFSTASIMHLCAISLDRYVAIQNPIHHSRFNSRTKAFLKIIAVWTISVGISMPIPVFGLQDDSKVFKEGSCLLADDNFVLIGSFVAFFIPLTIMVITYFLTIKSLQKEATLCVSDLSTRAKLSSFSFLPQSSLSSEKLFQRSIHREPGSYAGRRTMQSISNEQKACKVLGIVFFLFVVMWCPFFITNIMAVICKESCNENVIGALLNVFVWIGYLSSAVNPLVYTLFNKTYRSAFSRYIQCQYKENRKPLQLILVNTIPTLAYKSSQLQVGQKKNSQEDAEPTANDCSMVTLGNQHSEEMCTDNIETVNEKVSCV
T3 sequence (Q61616 whole entry): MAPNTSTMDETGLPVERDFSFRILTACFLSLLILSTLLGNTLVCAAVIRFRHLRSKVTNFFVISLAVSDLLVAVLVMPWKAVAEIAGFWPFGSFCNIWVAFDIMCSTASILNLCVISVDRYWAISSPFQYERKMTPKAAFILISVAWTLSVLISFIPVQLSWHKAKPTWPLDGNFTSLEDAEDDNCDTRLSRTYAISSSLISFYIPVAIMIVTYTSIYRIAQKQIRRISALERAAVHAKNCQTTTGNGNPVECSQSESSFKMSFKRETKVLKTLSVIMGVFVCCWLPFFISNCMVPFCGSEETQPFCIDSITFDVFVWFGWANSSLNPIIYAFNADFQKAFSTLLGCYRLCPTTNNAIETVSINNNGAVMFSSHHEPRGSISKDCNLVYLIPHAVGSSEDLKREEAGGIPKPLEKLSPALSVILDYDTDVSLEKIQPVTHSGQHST

affinity for serotonin (5-HT2) receptors relative to dopamine (D2) receptors in the brain ([1]; as the dihydrochloride salt, 5-HT2 versus D2): higher affinity | Ki ([1]; tested as the dihydrochloride salt, brain receptor, read-out: binding affinity for brain serotonin 5-HT2 receptor (K1)): 6.5 nM | affinity for D2 (in words) (dopamine D2 receptor): moderate affinity | Ki (dopamine D2 receptor; tested as the dihydrochloride salt, read-out: binding affinity for dopamine D2 receptor (K1)): 35 nM | Ki (dopamine D1 receptor): 288 nM
Compound: Oc1ccc2c(c1)Sc1ccccc1C(N1CCNCC1)=N2 [Formula I, 11-piperazin-1-yldibenzo[b,f][1,4]thiazepin-7-ol]
